From patent US12344611B2, “Bridged cycloformylpyridine derivatives and uses thereof” (BroadenBio Co., Ltd., priority 2019, dated 2025)

How the values were obtained:
[1] = test system: Hep 3B hepatoma cells; test: In vitro cell proliferation assay (CellTiter-Glo, CTG), Hep 3B; format: cell-based, human; settings: Homo sapiens, Hep3B, 96 h, Hep 3B cells
Method: In Vitro Cell Proliferation Assay of FGFR4 (CellTiter-Glo Luminescent Cell Viability Assay, CTG Assay)
Hep 3B hepatoma cells were purchased from Cell Resource Center of Peking Union College, and HuH-7 hepatoma cells were purchased from Shanghai Biological Technology Co., Ltd. enzyme research. The cells were prepared at a concentration of 3×10^4/mL, which was then added with 100 μL to each well of a 96-well transparent flat-bottom black-walled plate to make 3000 cells per well. Incubate overnight at 37° C. in 5% CO2 incubator. Dilute a compound and add it to the wells having the cells, then add cell culture medium to 200 μL per well. Put in CO2 incubator for incubation. After 96 hours, 100 μL of culture medium was removed from each well, 100 μL of CTG was added, and the 96-well plate was placed on a shaker for 10 minutes, and placed in the shade at room temperature for 45 minutes. Data was read out by SoftMax Pro i3X Microplate Reader of MD, analyzed by the software GraphPad Prism 5.0, and S-shaped dose-response curve was drawn, then the EC50 values were calculated.

[2] = target: FGFR4 (Homo sapiens, UniProt P22455); test: In vitro biochemical kinase analysis of FGFR4 (HTRF KinEASE-TK); settings: HTRF kinase assay
Method: In Vitro Biochemical Kinase Analysis of FGFR4
FGFR4 protein kinase detection kit was purchased from Cisbio (HTRF KinEASE-TK kit). Prepare 1× kinase reaction buffer. Transfer 10 nL of a diluted compound to each well of a reaction plate (784075, Greiner) with an Echo 550, and seal the plate with sealing film. The reaction plate was centrifuged at 1000 g for 1 minute. Prepare 2×FGFR4 using 1× kinase reaction buffer, add 5 μL of kinase to each well of the reaction plate, seal the plate, centrifuge at 1000 g for 30 seconds, and incubate it at room temperature for 10 minutes. Prepare a mixture of 2×TK-substrate-biotin and ATP using 1× kinase reaction buffer, add 5 μL of TK-substrate-biotin/ATP mixture to the reaction plate, seal the plate with sealing film, centrifuge at 1000 g for 30 seconds, and react at room temperature for 40 minutes. Prepare 2×Sa-XL 665 and TK-antibody-Cryptate mixture using HTRF detection buffer, add 10 μL Sa-XL 665 and TK-antibody-Cryptate mixture to each well, centrifuge at 1000 g for 30 seconds, and react at room temperature for 1 hour. Envision 2104 read fluorescence signals at 615 nm (Cryptate) and at 665 nm (XL665). IC50 of the compound was calculated using the GraphPad nonlinear fitting formula.

FGFR4, sequence (P22455 22-802): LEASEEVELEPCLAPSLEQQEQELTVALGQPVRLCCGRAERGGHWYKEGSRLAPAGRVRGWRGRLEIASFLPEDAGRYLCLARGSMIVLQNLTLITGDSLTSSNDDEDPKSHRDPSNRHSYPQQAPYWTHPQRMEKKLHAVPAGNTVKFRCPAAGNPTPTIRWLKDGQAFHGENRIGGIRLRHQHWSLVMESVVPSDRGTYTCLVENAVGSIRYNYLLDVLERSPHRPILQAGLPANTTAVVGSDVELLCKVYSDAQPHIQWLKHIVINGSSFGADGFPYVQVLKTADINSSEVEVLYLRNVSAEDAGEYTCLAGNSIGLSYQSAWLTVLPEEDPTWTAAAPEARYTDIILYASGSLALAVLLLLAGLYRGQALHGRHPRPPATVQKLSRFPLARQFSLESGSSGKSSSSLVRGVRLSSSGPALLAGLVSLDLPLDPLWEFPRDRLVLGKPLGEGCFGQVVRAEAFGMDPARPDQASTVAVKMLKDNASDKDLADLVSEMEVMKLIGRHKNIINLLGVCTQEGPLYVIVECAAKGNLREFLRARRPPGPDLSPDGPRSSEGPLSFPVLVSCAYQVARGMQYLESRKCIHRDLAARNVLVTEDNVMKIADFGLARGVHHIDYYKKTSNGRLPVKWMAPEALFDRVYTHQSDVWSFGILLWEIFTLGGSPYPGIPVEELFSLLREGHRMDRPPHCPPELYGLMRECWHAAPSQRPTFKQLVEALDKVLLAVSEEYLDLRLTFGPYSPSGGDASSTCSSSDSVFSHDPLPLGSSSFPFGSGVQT

Row | Structure (SMILES) | EC50 [1] [nM] | IC50 [2] [nM]
1 | N#Cc1cnc(NC(=O)N2c3nc(C=O)ccc3C3(F)CC2C3)cc1NC1CNC1 [Compound 23, N-(5-cyano-4-(azetidin-3-ylamino)pyridin-2-yl)-7-formyl-4-fluoro-3,4-dihydro-2,4-methylene-1,8-naphthyridine-1(2H)-carboxamide] | 102 | –
2 | COCCNc1cc(NC(=O)N2c3nc(C=O)ccc3C3(N(C)C(=O)c4cnn(C)c4)CC2C3)ncc1C#N [Compound 42] | 7.2 | 3.2
3 | COCCNc1cc(NC(=O)N2c3nc(C=O)ccc3C3(N4CCN(C)CC4=O)CC2C3)ncc1C#N [Compound 43, N-(5-cyano-4-((2-methoxyethyl)amino)pyridin-2-yl)-7-formyl-4-(4-methyl-2-oxopiperazin-1-yl)-3,4-dihydro-2,4-methylene-1,8-naphthyridine-1(2H)-carboxamide] | 6.5 | 3.1
4 | COCCNc1cc(NC(=O)N2c3nc(C=O)ccc3C3(NC(=O)N4CCOCC4)CC2C3)ncc1C#N [Compound 44, N-(5-cyano-4-((2-methoxyethyl)amino)pyridin-2-yl)-7-formyl-4-(morpholine-4-carboxamido)-3,4-dihydro-2,4-methylene-1,8-naphthyridine-1(2H)-carboxamide] | 12.3 | 2.5
5 | COCCNc1cc(NC(=O)N2c3nc(C=O)ccc3C3(NC(=O)CO)CC2C3)ncc1C#N [Compound 47, N-(5-cyano-4-((2-methoxyethyl)amino)pyridin-2-yl)-4-(2-hydroxyacetamido)-7-formyl-3,4-dihydro-2,4-methylene-1,8-naphthyridine-1(2H)-carboxamide] | 17.8 | 2.8

Further lines, results first:

Row | EC50 [1] [nM] | IC50 [2] [nM] | Structure (SMILES)
6 | 10.7 | 1.2 | COCCNc1cc(NC(=O)N2c3nc(C=O)ccc3C3(N(C)C4CCOC4)CC2C3)ncc1C#N (stereo not shown) [Compound 34, N-(5-cyano-4-((2-methoxyethyl)amino)pyridin-2-yl)-4-(methyl(tetrahydrofuran-3-yl)amino)-7-formyl-3,4-dihydro-2,4-methylene-1,8-naphthyridine-1(2H)-carboxamide]
7 | 2.2 | 1.1 | COCCNc1cc(NC(=O)N2c3nc(C=O)ccc3C3(OCCN4CCCC4)CC2C3)ncc1C#N [Compound 35, N-(5-cyano-4-((2-methoxyethyl)amino)pyridin-2-yl)-4-(2-(pyrrolidin-1-yl)ethoxy)-7-formyl-3,4-dihydro-2,4-methylene-1,8-naphthyridine-1(2H)-carboxamide]
8 | 6.4 | 2.5 | CCC(=O)NC12CC(C1)N(C(=O)Nc1cc(NCCOC)c(C#N)cn1)c1nc(C=O)ccc12 [Compound 37, N-(5-cyano-4-((2-methoxyethyl)amino)pyridin-2-yl)-4-propionamido-7-formyl-3,4-dihydro-2,4-methylene-1,8-naphthyridine-1(2H)-carboxamide]
9 | 11.4 | 1.8 | COCCNc1cc(NC(=O)N2c3nc(C=O)ccc3C3(OCC(=O)N4CCOCC4)CC2C3)ncc1C#N [Compound 45, N-(5-cyano-4-((2-methoxyethyl)amino)pyridin-2-yl)-4-(2-(morpholin-4-yl)-2-oxoethoxy)-7-formyl-3,4-dihydro-2,4-methylene-1,8-naphthyridine-1(2H)-carboxamide]
10 | – | 1.6 | COCCNc1cc(NC(=O)N2c3nc(C=O)ccc3C3(NC(=O)c4ccccn4)CC2C3)ncc1C#N [Compound 48, N-(5-cyano-4-((2-methoxyethyl)amino)pyridin-2-yl)-4-(pyridine-2-carboxamido)-7-formyl-3,4-dihydro-2,4-methylene-1,8-naphthyridine-1(2H)-carboxamide]
11 | – | 1.6 | COCCNc1cc(NC(=O)N2c3nc(C=O)ccc3C3(NC(=O)c4ccc[nH]4)CC2C3)ncc1C#N [Compound 49]
